{"source": "paper PMC5618429", "about": "“Kempopeptin C, a Novel Marine-Derived Serine Protease Inhibitor Targeting Invasive Breast Cancer” (Marine Drugs, 2017)", "key": {"[1]": {"assay": "Cell viability assay (MTT)", "assay_type": "cell-based", "details": "human, MDA-MB-231 breast cancer cells; MDA-MB-231, 48 h, all concentrations tested (32 µM to 320 pM)", "protocol": "MDA-MB-231 cells were seeded in 96-well plates (10,000 cells/well). After 24 h of incubation, the cells were treated with different concentrations of kempopeptins B or C (2 or 3) or the solvent control (DMSO). Following 48 h of incubation, cell viability was measured using 3-(4,5-dimethylthiazol-2-yl)-2,5-diphenyltetrazolium bromide according to the manufacturer's instructions (Promega, Madison, WI, USA).\nEffect of kempopeptins on the viability of MDA-MB-231 cells\nKempopeptin C Kempopeptin B\nFigure S1. Effect of kempopeptins B and C (2) and (3) on the viability of MDA -MB-231 breast cancer cells."}, "[2]": {"biological_target": "T1, recombinant human matriptase (Homo sapiens, UniProt Q9Y5Y6)", "T1 construct": "purchased R&D Systems 3946-SE-010", "T1 sequence (Q9Y5Y6 615-855 limits assumed)": "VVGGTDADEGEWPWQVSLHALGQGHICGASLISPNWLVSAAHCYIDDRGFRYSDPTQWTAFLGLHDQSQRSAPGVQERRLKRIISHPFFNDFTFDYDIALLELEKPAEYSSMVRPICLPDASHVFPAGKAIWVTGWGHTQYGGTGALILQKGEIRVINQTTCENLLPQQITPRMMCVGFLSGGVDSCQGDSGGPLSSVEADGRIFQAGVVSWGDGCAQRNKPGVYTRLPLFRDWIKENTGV", "assay": "In vitro cleavage of desmoglein-2 by matriptase (SDS-PAGE, silver stain, densitometry)", "assay_type": "biochemical", "details": "3 h; for Inhibition of in vitro cleavage of Dsg-2 by matriptase: enzyme to substrate ratio 1:5, pH 9.0, 37 °C, 10‒0.01 µM inhibitor, qualitative", "protocol": "Figure 4 The effect of kempopeptin C (3) on the in vitro cleavage of CDCP1 and desmoglein-2 (Dsg-2) by matriptase. (A,B) Incubation of recombinant human CDCP1 with recombinant human matriptase (enzyme to substrate ratio 1:5) in 50 mM Tris, 50 mM NaCl, 0.01% Tween 20 (pH 9.0) at 37 °C for 30 min and 2 h in the presence and absence of different concentrations (10‒0.01 µM) of kempopeptin C (3). (C) Incubation of recombinant human Dsg-2 with recombinant human matriptase (enzyme to substrate ratio 1:5) in 50 mM Tris, 50 mM NaCl, 0.01% tween 20 (pH 9.0) at 37 °C for 3 h in the presence and absence of different concentrations (10‒0.01 µM) of kempopeptin C (3). Fragments were separated on SDS-PAGE under reducing conditions and silver stained. (D) Densitometric analysis of Dsg-2 bands in the SDS-PAGE in […].\nAmong the earliest events in cancer metastasis is the loss of intracellular adhesion. Desmosomes are adhesive molecules localized at the cell membrane acting as an anchor for intermediate filaments in addition to being adhesive intracellular junctions. Desmogleins (Dsg 1‒4) and desmocollins (Dsc 1‒3), comprising the core of the desmosomal adhesive complex, are glycoproteins and members of the cadherin superfamily of proteins. Desmogleins have been reported to be aberrantly expressed in several cancers and substrates of several proteases. Dsg-2 is known to be a substrate of kallikrein 7 (KLK7) and harbors a cleavage site for matriptase. We therefore investigated the cleavage of Dsg-2 by matriptase in vitro and the ability of kempopeptin C (3) to inhibit or reduce this cleavage. Matriptase and Dsg-2 were incubated for 3 h at 37 °C in assay buffer (final molar ratio 1:5) in the presence of different concentrations of kempopeptin C (3) or solvent control (Figure 4C). The resulting protein fragments were separated by SDS-PAGE and subjected to silver staining. […] The incomplete cleavage of Dsg-2 by matriptase might be due to the relative affinity of kempopeptin C (3) to matriptase, such that it can block the cleavage of some low affinity bands, but have no effects on others. […]"}, "[3]": {"biological_target": "T2, plasmin from human plasma (Homo sapiens, UniProt P00747)", "T2 construct": "purchased Sigma P1867; host or cells: human plasma", "T2 sequence (P00747 581-810 limits assumed)": "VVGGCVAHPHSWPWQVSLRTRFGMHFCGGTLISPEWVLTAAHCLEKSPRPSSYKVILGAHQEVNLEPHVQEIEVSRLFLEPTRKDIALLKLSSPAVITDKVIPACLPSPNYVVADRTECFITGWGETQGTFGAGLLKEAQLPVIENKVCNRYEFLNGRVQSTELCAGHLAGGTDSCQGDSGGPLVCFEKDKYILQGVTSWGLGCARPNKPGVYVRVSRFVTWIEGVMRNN", "T2 sequence (P00747 98-580 partner limits assumed)": "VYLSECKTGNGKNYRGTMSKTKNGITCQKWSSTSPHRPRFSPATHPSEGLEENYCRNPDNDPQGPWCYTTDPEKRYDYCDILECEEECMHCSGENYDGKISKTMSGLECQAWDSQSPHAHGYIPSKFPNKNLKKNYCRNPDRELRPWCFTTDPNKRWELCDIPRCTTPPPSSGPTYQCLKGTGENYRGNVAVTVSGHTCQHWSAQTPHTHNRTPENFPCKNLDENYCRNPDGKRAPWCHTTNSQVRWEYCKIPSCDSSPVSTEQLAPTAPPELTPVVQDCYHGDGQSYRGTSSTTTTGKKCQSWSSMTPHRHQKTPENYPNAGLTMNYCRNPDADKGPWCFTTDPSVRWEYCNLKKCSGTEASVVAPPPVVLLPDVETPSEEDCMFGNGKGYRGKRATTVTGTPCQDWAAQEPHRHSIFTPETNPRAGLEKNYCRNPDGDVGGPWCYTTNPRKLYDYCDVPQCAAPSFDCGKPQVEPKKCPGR", "assay": "Plasmin inhibition assay", "assay_type": "biochemical", "details": "mean ± SD, n = 3; 30-min preincubation; read-out: IC50 against plasmin", "protocol": "The plasmin inhibition assay was carried out by incubating 5 µL of […] plasmin from human plasma (P1867, Sigma, St. Louis, MO, USA) with 1 µL of different concentrations of inhibitors (2 and 3; half log dilutions prepared in DMSO) or the solvent control in the presence of 89 µL assay buffer (0.05 M Tris-HCl, pH 8.9). After a 30-min incubation time, 5 µL of 1.7 mM substrate solution (N-p-Tosyl-D-Gly-Pro-Lys-4-nitroanilide acetate salt; prepared in assay buffer) were added to each well. The reaction was monitored by measuring the absorbance at 405 nm every 30 s for 30 min using the SpectraMax M5 plate reader (Molecular Devices)."}}}
{"compound": "CCCC(=O)NC(C(=O)NC1C(=O)NC(CCCCN)C(=O)NC2CCC(O)N(C2=O)C(C(C)CC)C(=O)N(C)C(Cc2ccc(OC)c(Cl)c2)C(=O)NC(C(C)C)C(=O)OC1C)C(C)C", "note": "(centres unmarked) [Kempopeptin C, kempopeptin C]", "values": [{"measurement": "viability at 48 h", "setting": "[1]", "result": "> 90", "unit": "%"}, {"measurement": "Densitometry of full-length Dsg-2 (Band 1)", "setting": "[2]; 37 °C, compared to lower concentrations of the inhibitor", "result": "higher intensity of the full-length Dsg-2 (Band 1) in the presence of 10, 1 and 0.1 µM"}, {"measurement": "Inhibition of in vitro cleavage of Dsg-2 by matriptase", "setting": "[2]", "result": "inhibit the cleavage"}, {"measurement": "Inhibition of in vitro cleavage of Dsg-2 by matriptase", "setting": "[2]; listed as Kempopeptin C (3)", "result": "slight dose-dependent reduction in the cleavage of Dsg-2"}, {"measurement": "IC50", "setting": "[3]", "result": "0.36 ± 0.09", "unit": "µM"}]}
